This is an account of results in paper PMC8699537, “In Vitro Anti-SARS-CoV-2 Activity of Selected Metal Compounds and Potential Molecular Basis for Their Actions Based on Computational Study” (Biomolecules, 2021).

Series [1] deals with SARS-CoV-2. The series can be described thus: microbe, parasite or virus in culture. Format: cell-based. The note with it: for IC50 (half-maximal inhibitory concentration), DYRA / IC50: Calu-3 cells, SARS-CoV-2 lineage B.1, 48h, DYRA; for IC50: read-out: IC50 (half-maximal inhibitory concentration), DYRA.
Series [2] concerns SARS-CoV-2. It counts as cell-based. The note with it: for IC50 (half-maximal inhibitory concentration), SYRA: DYRA supernatants on VERO E6 cells, 24 h.
The test system of series [3] is Calu-3 cells. The series is described as follows: Cytotoxicity, CellTiter-Glo 2.0 Luminescent Cell Viability Assay. The note with it: read-out: CC50 (half-maximal cytotoxic concentration), 48h exposure.
Series [4] relates to Huh-7 cells. Further details: method as in PMID 32442105. Particulars: cited from earlier work.
Series [5] relates to SARS-CoV-2. The arrangement: method as in PMID 32442105. The note with it: Huh-7 cells; viral RNA in cell supernatant; cited from earlier work.
Series [6] is described as follows: in vitro. The note with it: human.

Like-named read-outs stand apart in the source and are kept apart here.

Turning to `CC[P](CC)(CC)[Au][I]` [Au(Pet3)I], the “IC50 (half-maximal inhibitory concentration), DYRA” value in series [1] is “Not active ^3”. Besides, in series [2], the “IC50 (half-maximal inhibitory concentration), SYRA” value is recorded as “Not active ^3”. For the same compound, the CC50 in series [3] came to 12 µM.

Consider `CCOC(=O)CN(C)C1=[S+][Au-]([Br])([Br])[S]1` [AuL12], for which, in series [1], the “IC50 (half-maximal inhibitory concentration), DYRA” value is reported as “Not active ^3”. For the same compound, the “IC50 (half-maximal inhibitory concentration), SYRA” value in series [2] was “Not active ^3”. For the same compound, the CC50 in series [3] amounted to 19 µM.

On to `CC(=O)OC[C@H]1O[C@@H]([S-])[C@H](OC(C)=O)[C@@H](OC(C)=O)[C@@H]1OC(C)=O.CCP(CC)CC.[Au+]` [Auranofin], for which the “IC50 (half-maximal inhibitory concentration), DYRA” value in series [1] is on record as “Not active ^3”. For the same compound, the “IC50 (half-maximal inhibitory concentration), SYRA” value in series [2] is “Not active ^3”. The CC50 in series [4] is 5.7 µM; in series [3] it was 3.7 µM. Moreover, the IC50 in series [5] was 1.4 µM.

For the compound `Cl.[Cl-].[Cl-].[Cl-].[Ru+3].c1ccc2[nH]ncc2c1.c1ccc2[nH]ncc2c1.c1ccc2[nH]ncc2c1` [KP1019], the IC50 in series [1] was 8.8 ± 1.5 µM. For the same compound, the CC50 in series [3] came to 60 µM.

For the compound `CS(C)=O.[Cl-].[Cl-].[Cl-].[Cl-].[Ru+3].c1c[nH+]c[nH]1.c1c[nH]cn1` [NAMI-A], in series [1], the “IC50 (half-maximal inhibitory concentration), DYRA” value is reported as “Not active ^3”. The “IC50 (half-maximal inhibitory concentration), SYRA” value in series [2] was “Not active ^3”.

Consider `Cl.[Cl-].[Cl-].[Cl-].[Ru+3].c1c[nH]cn1.c1c[nH]cn1` [NAMI-A], for which the CC50 in series [3] was more than 200 µM.

In the case of `CCC(CC)COC(=O)[C@H](C)N[P@](=O)(OC[C@H]1O[C@@](C#N)(c2ccc3c(N)ncnn23)[C@H](O)[C@@H]1O)Oc1ccccc1` [Remdesivir], the “Selectivity Index” value in series [1] (CC50/IC50 ratio, IC50 from DYRA) turned out to be 485. Moreover, the IC50 in series [1] (Severe acute respiratory syndrome coronavirus 2) was 0.2 ± 0.05 µM. This compound also had a CC50 in series [6] of 97 µM.

On to `[Cl][Sb]([Cl])[Cl]` [SbCl3, antimony trichloride], for which the IC50 in series [1] amounted to 31.1 ± 15.3 µM. The CC50 in series [3] was 200 µM.

For `[Cl-].[Cl-].[Ti+4].c1cc[cH-]c1.c1cc[cH-]c1` [TiCp2Cl2, Titanocene dichloride], the IC50 in series [2] (read-out: IC50 (half-maximal inhibitory concentration), SYRA) was determined as 47.3 µM. For the same compound, in series [3], the CC50 is more than 200 µM.
